Data set [1] has as its system peripheral blood suppressive Treg lymphocytes. Description: ACT001-CN-002 Phase II clinical trial, exploratory endpoint: peripheral blood Treg ratio. It counts as in vivo, patients. The conditions noted are these: one line per patient; for Peripheral blood Treg ratio (before treatment): first figure of the cell; for Peripheral blood Treg ratio (after treatment): second figure of the cell.

Data set [2] can be described thus: ACT001-CN-002 Phase II clinical trial, safety assessment (peripheral blood lymphopenia). How it is done: GBM patients who relapsed after standard treatment were randomly assigned to three cohorts of an ACT001-CN-002 Phase II clinical trial: • Cohort A: ACT001 monotherapy (400 mg, BID); • Cohort B: ACT001 and TMZ (temozolomide) were administered in combination at doses of 400mg, BID (ACT001) and 200 mg/m^2/day (TMZ, administered on days one to five of each 28-day course of treatment), respectively; • Cohort C: CCNU monotherapy (lomustine, 100-130 mg/m^2/dose, once every six weeks, 4 doses at most) or TMZ monotherapy (the dosage level and the route of administration were the same as those for cohort B).
The trial endpoints were post-dose progression-free survival (iRANO criteria), one-year survival rate, and safety assessment: the number of times each safety event occurred (e.g., the incidence of peripheral blood lymphopenia). The exploratory endpoints included changes in the peripheral blood suppressive Treg lymphocyte ratio.

The test system of the next data set is GBM. The data set can be described thus: ACT001-CN-002 Phase II clinical trial, efficacy (best response, iRANO criteria). The following applies: one line per patient; duration of stable disease. It counts as in vivo, patients.

Values joined by “and” are separate entries in the source; they are usually repeats but may differ in a detail not shown here. Equal entries are not always repeated.

Take `CC1=C2CC[C@@](C)(O)[C@@H]2[C@H]2OC(=O)[C@@H](CN(C)C)[C@@H]2CC1` [ACT001]: in data set [1], the “Peripheral blood Treg ratio (before treatment)” value was 3.2 and 8.7 and 5.9 and 6.9 and 2.4; the “Peripheral blood Treg ratio (after treatment)” value is 8.4 and 6.5 and 6.7 and 1.8 and 9.4. The “Grade 3 or higher lymphopenia” value in data set [2] (human, in vivo) is listed as “No”. The “Best response time (months)” value in the data set on GBM is 9 months and 4 months.

`O=NN(CCCl)C(=O)NC1CCCCC1` [CCNU, lomustine]: in data set [1], the “Peripheral blood Treg ratio (before treatment)” value was 6.6 and 5.6 and 11.4; the “Peripheral blood Treg ratio (after treatment)” value was 12.4 and 7.3 and 9.5. In addition, the “Grade 3 or higher lymphopenia” value in data set [2] (one line per patient) is “No (2×) and Yes”. The “Best response time (months)” value with GBM was 6 months.

`Cn1nnc2c(C(N)=O)ncn2c1=O` [TMZ, temozolomide]: in data set [1], the “Peripheral blood Treg ratio (before treatment)” value was 4.3 and 7.1; the “Peripheral blood Treg ratio (after treatment)” value was 14.3 and 7.5. The “Best response time (months)” value in the data set on GBM was 7 months and 4 months.
